We go through 10 molecules from ChEMBL document CHEMBL1201862, “PubChem BioAssay data set” (2004).

Among the test systems are SF-268; MDA-MB-231; U-251; K562; 786-0; SK-MEL-2; A498; SK-OV-3; COLO 205; OVCAR-5; HOP-62; MDA-N; Hs-578T; LOX IMVI; SF-295; HCT-116; RXF 393; CCRF-CEM; NCI-H522; NCI/ADR-RES.
Holding throughout (experiment): NCI-60 cell line screen, 48 h

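Compound exposure: 48 hours, 5 concentrations, 96-well plates. GI50: concentration for 50% inhibition of growth.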 Active and inactive are the calls of the source. Rule as the data show it: active = GI50 up to about 1.1 µM and inactive = higher.

Consider `Cc1cc(OC2OC(CO)C(O)C(O)C2O)ccc1O` (stereo not given), for which the GI50 in the experiment on SF-268, with MDA-MB-231, in the experiment on U-251, with K562, in the experiment with 786-0 and in the experiment with SK-MEL-2 was > 100 µM (inactive) each time. The GI50 with A498, with SK-OV-3, with COLO 205, in the experiment on OVCAR-5, in the experiment on HOP-62 and in the experiment on MDA-N was > 100 µM (inactive) in each case. The GI50 in the experiment with Hs-578T, in the experiment on LOX IMVI, with SF-295, with HCT-116, with RXF 393 and in the experiment with CCRF-CEM was > 100 µM (inactive) in each case. Further, the GI50 with NCI-H522 and with NCI/ADR-RES was > 100 µM (inactive) each time.
In the case of `C/C(=N\N=C(\N)OB(F)F)c1ccccn1`, the GI50 with SF-268 is > 100 µM (inactive); with MDA-MB-231, 24.6 µM (inactive); in the experiment on U-251, 35.7 µM (inactive); in the experiment on K562, 46.7 µM (inactive); in the experiment on 786-0 it was 40.4 µM (inactive); in the experiment on SK-MEL-2, > 100 µM (inactive). Besides, the GI50 was > 100 µM (inactive) in the experiment with A498; > 10 µM (inactive) in the experiment on SK-OV-3; > 100 µM (inactive) with COLO 205; > 100 µM (inactive) in the experiment with OVCAR-5; 37.5 µM (inactive) in the experiment with HOP-62; 71.9 µM (inactive) with MDA-N. Also, the GI50 in the experiment on Hs-578T is 28.6 µM (inactive); in the experiment on LOX IMVI it was 28.2 µM (inactive); with SF-295 it was 66.8 µM (inactive); in the experiment on HCT-116, 58.5 µM (inactive); in the experiment with RXF 393, 9.33 µM (inactive); with CCRF-CEM, 43.4 µM (inactive). The GI50 in the experiment with NCI-H522 and in the experiment with NCI/ADR-RES was > 100 µM (inactive) in each case.
Turning to `Nc1ccc(C(=O)N2CCC[C@H]2CO)c(N)c1`, the GI50 in the experiment with SF-268, in the experiment with MDA-MB-231, in the experiment with U-251, in the experiment with K562, with 786-0 and in the experiment with SK-MEL-2 was > 100 µM (inactive) throughout. Further, the GI50 with A498, in the experiment with SK-OV-3, in the experiment with COLO 205, in the experiment on OVCAR-5, with HOP-62 and in the experiment with MDA-N was > 100 µM (inactive) each time. For the same molecule, the GI50 in the experiment on Hs-578T, in the experiment with LOX IMVI, in the experiment with SF-295, with HCT-116, in the experiment with RXF 393 and in the experiment on CCRF-CEM was > 100 µM (inactive) throughout. The GI50 in the experiment on NCI-H522 and with NCI/ADR-RES was > 100 µM (inactive) throughout.
With `COc1ccc(-c2cc3cc(Cl)cc(Cl)c3oc2=O)cc1OC`, the GI50 in the experiment on SF-268 was 43.6 µM (inactive); in the experiment with MDA-MB-231, 62.7 µM (inactive); with U-251, 37.2 µM (inactive); in the experiment on K562 it was 33.3 µM (inactive); in the experiment with 786-0 it was 35.3 µM (inactive); in the experiment with SK-MEL-2, > 100 µM (inactive). Moreover, the GI50 is 79.1 µM (inactive) in the experiment with A498; 74.8 µM (inactive) with SK-OV-3; > 100 µM (inactive) in the experiment with COLO 205; > 100 µM (inactive) with OVCAR-5; 40 µM (inactive) in the experiment with HOP-62; 94 µM (inactive) with MDA-N. Further, the GI50 in the experiment with Hs-578T is 31.4 µM (inactive); in the experiment on LOX IMVI, > 100 µM (inactive); with SF-295, 48.5 µM (inactive); in the experiment with HCT-116, 31.6 µM (inactive); in the experiment with RXF 393 it was 19.4 µM (inactive); in the experiment on CCRF-CEM, > 100 µM (inactive). The GI50 with NCI-H522 was 36.1 µM (inactive); in the experiment on NCI/ADR-RES it was 56.9 µM (inactive).
In the case of `CCN(CC)CC1CCCCN1CC(=O)N1c2ccccc2NC(=O)CC1C` (stereo not given), the GI50 in the experiment with SF-268, in the experiment on MDA-MB-231, in the experiment with U-251, in the experiment on K562, in the experiment on 786-0 and with SK-MEL-2 was > 100 µM (inactive) each time. Besides, the GI50 with A498, in the experiment on SK-OV-3, with COLO 205, in the experiment on OVCAR-5, in the experiment with HOP-62 and in the experiment on MDA-N was > 100 µM (inactive) each time. In addition, the GI50 in the experiment with Hs-578T, in the experiment on LOX IMVI, in the experiment with SF-295, in the experiment on HCT-116, in the experiment with RXF 393 and with CCRF-CEM was > 100 µM (inactive) in each case. Moreover, the GI50 with NCI-H522 and with NCI/ADR-RES was > 100 µM (inactive) throughout.
`COc1ccc2c3c1OC1C(=O)C=CC4(CC2)N(C)CCC314` (stereo not given): the GI50 in the experiment on SF-268 is 19.3 µM (inactive); in the experiment on MDA-MB-231 it was 41.2 µM (inactive); with U-251 it was 19.5 µM (inactive); in the experiment on K562, 12.2 µM (inactive); with 786-0 it was 17.2 µM (inactive); with SK-MEL-2, 16.3 µM (inactive). Moreover, the GI50 in the experiment on A498 was 13.9 µM (inactive); in the experiment on SK-OV-3, 36.4 µM (inactive); in the experiment with COLO 205, 6.19 µM (inactive); with OVCAR-5, 29.5 µM (inactive); in the experiment on HOP-62, 29.6 µM (inactive); in the experiment with MDA-N it was 15.8 µM (inactive). The GI50 in the experiment on Hs-578T is 19.3 µM (inactive); with LOX IMVI, 11.4 µM (inactive); in the experiment on SF-295, 38 µM (inactive); in the experiment with HCT-116, 14 µM (inactive); in the experiment with RXF 393 it was 25.9 µM (inactive); in the experiment with CCRF-CEM, 12.7 µM (inactive). The GI50 in the experiment with NCI-H522 was 11 µM (inactive); in the experiment with NCI/ADR-RES it was 22.9 µM (inactive).
Regarding `CC(=O)Nc1sc([N+](=O)[O-])cc1S(=O)(=O)c1ccc(Cl)cc1`, the GI50 with SF-268 is 4.35 µM (inactive); in the experiment with MDA-MB-231, 4.23 µM (inactive); in the experiment with U-251, 4.22 µM (inactive); with K562 it was 5.47 µM (inactive); with 786-0, 4.66 µM (inactive); in the experiment on SK-MEL-2 it was 0.92 µM (active). In addition, the GI50 in the experiment on A498 was 3.17 µM (inactive); in the experiment with SK-OV-3, 2.5 µM (inactive); with COLO 205, 1.29 µM (inactive); in the experiment with OVCAR-5, 4.7 µM (inactive); in the experiment with HOP-62, 1.39 µM (inactive); with MDA-N it was 3.92 µM (inactive). In addition, the GI50 in the experiment with Hs-578T is 3.56 µM (inactive); in the experiment on LOX IMVI it was 3.94 µM (inactive); in the experiment with SF-295, 2.14 µM (inactive); with HCT-116, 2.99 µM (inactive); in the experiment on RXF 393, 2.64 µM (inactive); in the experiment with CCRF-CEM, 8.2 µM (inactive). In addition, the GI50 with NCI-H522 was 1.41 µM (inactive); with NCI/ADR-RES it was 3.22 µM (inactive).
`CC(C)=CCc1[nH]c2ccccc2c1C1=C(O)C(=O)C(c2c(CC=C(C)C)[nH]c3ccccc23)=C(O)C1=O`: the GI50 with SF-268 is 0.409 µM (active); in the experiment on MDA-MB-231 it was 1.28 µM (inactive); with U-251, 0.587 µM (active); with K562, 0.989 µM (active); with 786-0 it was 1.56 µM (inactive); in the experiment on SK-MEL-2, 1.64 µM (inactive). The GI50 with A498 was 1.21 µM (inactive); with SK-OV-3, 2.11 µM (inactive); with COLO 205, 1.63 µM (inactive); with OVCAR-5, 2.89 µM (inactive); with HOP-62, 0.815 µM (active); in the experiment with MDA-N it was 1.04 µM (active). Moreover, the GI50 is 1.04 µM (active) in the experiment on Hs-578T; 1.43 µM (inactive) in the experiment on LOX IMVI; 1.03 µM (active) in the experiment on SF-295; 1.5 µM (inactive) in the experiment on HCT-116; 1.75 µM (inactive) in the experiment with RXF 393; 1.03 µM (active) in the experiment with CCRF-CEM. The GI50 was 2.2 µM (inactive) in the experiment on NCI-H522 and 2.7 µM (inactive) in the experiment on NCI/ADR-RES.
As to `c1ccc(C2=NC3OC2c2ccccc23)cc1` (stereo not given), the GI50 in the experiment with SF-268, in the experiment with MDA-MB-231, with U-251, with K562, with 786-0 and with SK-MEL-2 was > 10 µM (inactive) each time. The GI50 with A498, with SK-OV-3, with COLO 205, in the experiment on OVCAR-5, with HOP-62 and in the experiment on MDA-N was > 10 µM (inactive) each time. In addition, the GI50 in the experiment on Hs-578T, with LOX IMVI, in the experiment with SF-295, in the experiment on HCT-116, in the experiment on RXF 393 and in the experiment on CCRF-CEM was > 10 µM (inactive) in each case. Moreover, the GI50 with NCI-H522 and in the experiment with NCI/ADR-RES was > 10 µM (inactive) throughout.
On to `O=C(O)C(Cc1ccccc1)N1C(=O)c2ccccc2C1=O` (stereo not given), for which the GI50 with SF-268, in the experiment on MDA-MB-231, in the experiment with U-251, with K562, in the experiment on 786-0 and in the experiment with SK-MEL-2 was > 100 µM (inactive) throughout. The GI50 in the experiment with A498, in the experiment with SK-OV-3, with COLO 205, in the experiment on OVCAR-5, in the experiment with HOP-62 and in the experiment with MDA-N was > 100 µM (inactive) each time. Further, the GI50 in the experiment with Hs-578T is > 100 µM (inactive); in the experiment with LOX IMVI it was > 100 µM (inactive); in the experiment with SF-295, > 100 µM (inactive); in the experiment on HCT-116, > 100 µM (inactive); in the experiment with RXF 393 it was > 100 µM (inactive); in the experiment on CCRF-CEM, 4.01 µM (inactive). The GI50 in the experiment with NCI-H522 and in the experiment with NCI/ADR-RES was > 100 µM (inactive) each time.
